This passage reports rhythm disturbances results from patent publication US20140323414A1 (priority 2011, published 2014).

The data set deals with live anesthetized rats. Particulars: rat, in vivo.

Regarding `CNCC(O)c1ccc(O)c(O)c1` (stereo not shown) [Adrenalin], the rhythm disturbances result is listed as “induced rhythm disturbances”.
